Some test systems named below: NCI-H226 lung; UO-31 renal; T-47D breast; HCC-2998 colon; ACHN renal; SNB-19 CNS; NCI-H460 lung; UACC-62 melanoma; HL-60(TB) leukemia; OVCAR-5 ovarian.
Holding throughout (assay): NCI-60 cell line screen, 48 h

Results on 12 compounds are retold here after PubChem BioAssay (NCI).

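Results reflect a 48-hour exposure of cells in 96-well plates to compound at five concentrations. GI50 marks 50% less growth. TGI is the concentration that stops growth completely.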

Regarding `O=c1oc2ccccc2c2nc3ccccc3cc12`, the TGI is > 100 µM in the assay on NCI-H226 lung; > 100 µM with UO-31 renal; > 100 µM with T-47D breast; > 100 µM in the assay with HCC-2998 colon; > 100 µM in the assay with ACHN renal; 70.3 µM in the assay with SNB-19 CNS. The TGI in the assay on NCI-H460 lung, in the assay with UACC-62 melanoma, with HL-60(TB) leukemia and with OVCAR-5 ovarian was > 100 µM throughout.
In the case of `C[C@@H]1C(=O)CC2(O)[C@@]13C[C@@H](OC(=O)[C@@H]3O)[C@@H](C)[C@@]21COC1=O` (stereo not given in full), the TGI in the assay on NCI-H226 lung, in the assay with UO-31 renal, with T-47D breast, in the assay on HCC-2998 colon, in the assay on ACHN renal and in the assay with SNB-19 CNS was > 100 µM in each case. For the same compound, the TGI in the assay with NCI-H460 lung, in the assay with UACC-62 melanoma, with HL-60(TB) leukemia and in the assay with OVCAR-5 ovarian was > 100 µM throughout.
On to `CC/C=C\C/C=C\C/C=C\CCCCCCCC(=O)OC(COC(=O)CCCCCCCCCCCCCCCCC)COC1OC(CO)C(O)C(O)C1O` (stereo not given), for which the TGI in the assay with NCI-H226 lung, in the assay on UO-31 renal, in the assay on T-47D breast, with HCC-2998 colon, in the assay on ACHN renal and in the assay on SNB-19 CNS was > 25 µM each time. The TGI in the assay with NCI-H460 lung, in the assay with UACC-62 melanoma, with HL-60(TB) leukemia and in the assay on OVCAR-5 ovarian was > 25 µM in each case.
On to `COc1ccc(/C=N/Nc2nc3ccccc3c(=O)n2-c2ccccc2)c(OCc2ccccc2)c1`, for which the TGI in the assay on NCI-H226 lung, in the assay on UO-31 renal, in the assay with T-47D breast, in the assay with HCC-2998 colon, in the assay with ACHN renal and with SNB-19 CNS was > 100 µM each time. The TGI in the assay on NCI-H460 lung, with UACC-62 melanoma, in the assay on HL-60(TB) leukemia and with OVCAR-5 ovarian was > 100 µM each time.
For `CC[P+](C#Cc1ccccc1)(c1ccccc1)c1ccccc1`, the TGI was 8.69 µM in the assay on NCI-H226 lung; 27 µM in the assay with UO-31 renal; 6.88 µM in the assay on T-47D breast; 4.46 µM in the assay on HCC-2998 colon; 13 µM in the assay on ACHN renal; 17.5 µM with SNB-19 CNS. Also, the TGI in the assay on NCI-H460 lung was 11.2 µM; in the assay with UACC-62 melanoma, 3.45 µM; in the assay with HL-60(TB) leukemia it was 1.05 µM; in the assay with OVCAR-5 ovarian, 16.3 µM.
Turning to `Nc1nc(Nc2ccc(OCc3cccc(F)c3)cc2)c2c(n1)[nH]c1ccc(O)cc12`, the GI50 was 24.2 µM in the assay with NCI-H226 lung; 1.75 µM in the assay with UO-31 renal; 1.79 µM in the assay with T-47D breast; 3.46 µM with HCC-2998 colon; 3.16 µM in the assay on ACHN renal; 4.4 µM in the assay with SNB-19 CNS. The GI50 with NCI-H460 lung is 3.25 µM; with UACC-62 melanoma, 1.95 µM; in the assay with HL-60(TB) leukemia, 2.01 µM; in the assay on OVCAR-5 ovarian it was 3.38 µM. The TGI with NCI-H226 lung was 54.6 µM; in the assay on UO-31 renal, 4.12 µM; in the assay on T-47D breast it was 4.5 µM; in the assay on HCC-2998 colon, 13.6 µM; in the assay on ACHN renal it was 12 µM; in the assay with SNB-19 CNS, 21.7 µM. In addition, the TGI was determined as 9.37 µM in the assay with NCI-H460 lung, 4.09 µM with UACC-62 melanoma, 4.21 µM in the assay with HL-60(TB) leukemia and 14.5 µM in the assay on OVCAR-5 ovarian.
Consider `NC(=S)N=Nc1c(O)cc(Nc2ccc(Cl)cc2Cl)c2ccccc12`, for which the TGI with NCI-H226 lung is > 100 µM; with UO-31 renal it was > 100 µM; with T-47D breast, 93.6 µM; with HCC-2998 colon, > 100 µM; with ACHN renal it was 27.5 µM; with SNB-19 CNS, 88.6 µM. Moreover, the TGI with NCI-H460 lung was > 100 µM; in the assay on UACC-62 melanoma, 29.4 µM; in the assay on HL-60(TB) leukemia it was > 100 µM; in the assay with OVCAR-5 ovarian, > 100 µM.
For the compound `CC(C)(C)OC(=O)c1ccc(NCc2cc(O)ccc2O)cc1`, the TGI worked out at 8.64 µM in the assay with NCI-H226 lung; 2.51 µM in the assay with UO-31 renal; 2.57 µM in the assay on T-47D breast; 22.1 µM in the assay on HCC-2998 colon; 3.46 µM in the assay on ACHN renal; 38.8 µM in the assay on SNB-19 CNS. Further, the TGI in the assay with NCI-H460 lung is > 73.8 µM; in the assay with UACC-62 melanoma, 15.9 µM; in the assay on HL-60(TB) leukemia, 4.08 µM; in the assay on OVCAR-5 ovarian, 21.9 µM.
`Cc1cc2c(cc1Cl)SC(NNc1cnc3ccccc3n1)=NS2(=O)=O`: the TGI in the assay on NCI-H226 lung, with UO-31 renal, in the assay on T-47D breast, in the assay on HCC-2998 colon, in the assay on ACHN renal and in the assay on SNB-19 CNS was > 100 µM throughout. Also, the TGI in the assay on NCI-H460 lung, with UACC-62 melanoma, in the assay with HL-60(TB) leukemia and in the assay with OVCAR-5 ovarian was > 100 µM throughout.
`COP(=O)(CC(=O)C1OC(OCc2ccccc2)C(OCc2ccccc2)C(OCc2ccccc2)C1OCc1ccccc1)OC` (stereo not given): the TGI in the assay on NCI-H226 lung is 54 µM; with UO-31 renal, 7.1 µM; in the assay on T-47D breast, 41.9 µM; with HCC-2998 colon, 19.2 µM; with ACHN renal, 23.2 µM; in the assay on SNB-19 CNS, > 100 µM. In addition, the TGI in the assay on NCI-H460 lung was 38.4 µM; in the assay on UACC-62 melanoma, 17.8 µM; in the assay with HL-60(TB) leukemia, 23.7 µM; in the assay on OVCAR-5 ovarian, > 100 µM.
`CCN(C(=O)N[C@H](C(=O)N[C@@H](C)C(=O)OC)C(C)C)c1ccccc1`: the TGI in the assay on NCI-H226 lung is > 100 µM; in the assay on UO-31 renal, > 100 µM; with T-47D breast it was > 100 µM; with HCC-2998 colon, 33 µM; in the assay with ACHN renal, > 100 µM; in the assay on SNB-19 CNS, > 100 µM. Also, the TGI in the assay on NCI-H460 lung is 66.2 µM; with UACC-62 melanoma, 55.7 µM; with HL-60(TB) leukemia, > 100 µM; in the assay with OVCAR-5 ovarian, > 100 µM.
As for `COn1cc(CO)c2ccccc21`, the TGI was 6.35 µM with NCI-H226 lung; > 82 µM with UO-31 renal; > 100 µM in the assay on T-47D breast; > 100 µM in the assay on HCC-2998 colon; > 100 µM in the assay with ACHN renal; > 100 µM in the assay with SNB-19 CNS. Also, the TGI in the assay with NCI-H460 lung was > 100 µM; in the assay with UACC-62 melanoma, > 100 µM; in the assay with HL-60(TB) leukemia, > 100 µM; with OVCAR-5 ovarian, 42.5 µM.
